According to paper PMC9465641 (Frontiers in Pharmacology, 2022):
Where a name gives a salt, the structure may show the parent alone. Positions of bridges follow the written chain, without caps; N, C: chain ends. Non-standard residues stand in square brackets, D forms with d. Residues, ends and D or L forms follow the SMILES beside them. *: point of attachment. X1 = CC[C@H](C)CCCCC(=O)*; Dab = NCC[C@H](N)C(=O)O

Experiments:
[1] = Urinary excretion and renal clearance of colistin sulfate; format: in vivo, human
Procedure: Colistin sulfate treatment was at the discretion of their medical teams. […] Colistin sulfate was routinely subjected to therapeutic drug monitoring (TDM) in our hospital. […] Other blood samples were collected randomly from residual blood of blood gas analysis or routine blood tests. In addition, urine samples from 6 patients with catheters in the intensive care unit were collected and recorded across a dosage interval (0–12 h after dosing) after 72 h of therapy. All samples were centrifuged for 10 min (4,000 ×g), and the supernatant was immediately collected and stored at −80°C pending analysis.
Colistin A and colistin B in plasma and urinary samples were quantified using a validated ultraperformance liquid chromatography tandem mass spectrometry (LC-MS/MS) assay. Briefly, samples were pretreated with acetonitrile, and 1 μL supernatant was injected into the LC-MS/MS instrument for analysis. A Waters XBridge BEH HILIC (4.6 × 150 mm, 2.5 μm) column was used. The mobile phase, consisting of eluents A (0.1% formic acid in water, vol/vol) and B (methanol), was delivered at a flow of 0.5 ml/min. Analysis of independently prepared quality control samples indicated good reproducibility (coefficients of variation ≤12.57%), and accuracy ranged from 88.52% to 109.43%. The limit of quantification was 0.034 mg/L for colistin A and 0.059 mg/L for colistin B. Since colistin A and B had similar structures, molecular weights and pharmacokinetic characteristics, the concentrations of colistin A and B were added together and referred to as colistin ([Li et al., 2003]; [Couet et al., 2011]).
The renal clearance (CLR) of colistin was calculated as the ratio of the amount recovered in urine to the area under the plasma concentration-time curve (AUC) during the same period ([Sandri et al., 2013]). The percentage of colistin sulfate excreted in urine was defined as the amount of colistin recovered in urine divided by the dose administered. The fraction of renal clearance was estimated by CLR divided by total body clearance (CL) ([Li et al., 2003]).

[2] = test system: carbapenem-resistant gram-negative bacteria; test: Clinical outcome, microbiological outcome and nephrotoxicity in patients; format: in vivo, human
Procedure: The primary endpoint was the clinical outcome, and the secondary endpoint was the microbiological outcome. Clinical outcomes were defined as valid, if signs and symptoms of infection disappeared or improved on Day 7 after the initiation of colistin therapy; or invalid, defined as any of the following criteria: death related to infection, hemodynamic instability, deteriorated Sequential Organ Failure Assessment (SOFA) score, constant fever >38.5°C, repeat isolation of bacterial phenotypically identical to the index isolate. […] Colistin-induced nephrotoxicity was defined using RIFLE (risk, injury, failure, loss of kidney function, and end-stage renal disease) criteria during treatment ([Bellomo et al., 2004]). […]

[3] = Individual drug exposure at steady state (PK/PD analysis); format: in vivo, human
K. pneumoniae = test: MIC for colistin of causative pathogen; format: cell-based; conditions: isolate of patient 2; KP
[4] = test system: PA+AB (P. aeruginosa + A. baumannii); test: MIC for colistin of causative pathogen; format: cell-based
[5] = design: method as in Li et al., 2003; conditions: Sprague-Dawley rats; ref Li et al., 2003; cited from earlier work
[6] = patient 1, Pulmonary, PA+AB, MIC 0.5 mg/L, 1.0 MU q12h, with MER+LIN
[7] = patient 2, Pulmonary, Bloodstream, Urinary tract, KP, MIC 0.5 mg/L, 1.0 MU q12h, with MER
[8] = patient 3, Pulmonary, AB, MIC 0.5 mg/L, 0.75 MU q12h + inhaled 0.25MU q12h, with MER
[9] = patient 6, Pulmonary, Bloodstream, KP, MIC 0.5 mg/L, 1.0 MU q12h + inhaled 0.25MU q12h, with PIP/TAZ
[10] = patient 7, Pulmonary, KP, MIC 0.5 mg/L, 0.75 MU q12h + inhaled 0.25MU q12h, with MER, PIP/TAZ
[11] = patient 8, Pulmonary, AB, MIC 2 mg/L, 0.75 MU q12h + inhaled 0.25MU q12h, with MER
[12] = patient 9, Pulmonary, AB, MIC 0.5 mg/L, 0.75 MU q12h + inhaled 0.25MU q12h, with MER
[13] = patient 10, Pulmonary, AB, MIC 0.5 mg/L, 0.75 MU q12h + inhaled 0.25MU q12h, with MER+LIN
[14] = patient 11, Bloodstream, AB, MIC 0.5 mg/L, 1.0 MU q12h, with MER+TEI
[15] = patient 12, Bloodstream, Urinary tract, KP, MIC 0.5 mg/L, 0.5 MU q8h, with CEF/AVI
[16] = patient 13, Pulmonary, Bloodstream, KP, MIC 0.5 mg/L, 0.5 MU q8h, with CEF/AVI
[17] = patient 14, Pulmonary, Bloodstream, Abdomen, KP, MIC 0.5 mg/L, 0.5 MU q8h, with CEF/AVI
[18] = patient 15, Abdomen, PA+AB, MIC 1, 2 mg/L, 0.75 MU q8h + inhaled 0.25MU q12h, with MER+CEF/SUL
[19] = patient 16, Pulmonary, AB, MIC 0.5 mg/L, 0.5 MU q8h + inhaled 0.25MU q12h, with MER+CEF/SUL
[20] = patient 18, Pulmonary, AB, MIC 0.5 mg/L, 0.75 MU q12h + inhaled 0.25MU q12h, with MER
[21] = patient 19, Pulmonary, AB, MIC 0.5 mg/L, 0.5 MU q8h, with MER+TEI
[22] = patient 1, 1.0 MU q12h, CrCL 63.93 ml/min
[23] = patient 2, 1.0 MU q12h, CrCL 138.05 ml/min
[24] = patient 3, 0.75 MU q12h + inhaled 0.25MU q12h, CrCL 193.84 ml/min
[25] = patient 6, 1.0 MU q12h + inhaled 0.25MU q12h, CrCL 23.79 ml/min
[26] = patient 7, 0.75 MU q12h + inhaled 0.25MU q12h, CrCL 10.2 ml/min
[27] = patient 8, 0.75 MU q12h + inhaled 0.25MU q12h, CrCL 62.44 ml/min
[28] = patient 9, 0.75 MU q12h + inhaled 0.25MU q12h, CrCL 70.98 ml/min
[29] = patient 10, 0.75 MU q12h + inhaled 0.25MU q12h, CrCL 29.3 ml/min
[30] = patient 11, 1.0 MU q12h, CrCL 26.81 ml/min
[31] = patient 12, 0.5 MU q8h, CrCL 9.7 ml/min
[32] = patient 13, 0.5 MU q8h, CrCL 52.49 ml/min
[33] = patient 14, 0.5 MU q8h, CrCL 93.28 ml/min
[34] = patient 15, 0.75 MU q8h + inhaled 0.25MU q12h, CrCL 41.41 ml/min
[35] = patient 16, 0.5 MU q8h + inhaled 0.25MU q12h, CrCL 45.07 ml/min
[36] = patient 18, 0.75 MU q12h + inhaled 0.25MU q12h, CrCL 101.48 ml/min
[37] = patient 19, 0.5 MU q8h, CrCL 91.55 ml/min

CC[C@H](C)CCCCC(=O)N[C@@H](CCN)C(=O)N[C@H](C(=O)N[C@@H](CCN)C(=O)N[C@H]1CCNC(=O)[C@H]([C@@H](C)O)NC(=O)[C@H](CCN)NC(=O)[C@H](CCN)NC(=O)[C@H](CC(C)C)NC(=O)[C@@H](CC(C)C)NC(=O)[C@H](CCN)NC1=O)[C@@H](C)O [colistin sulfate] (X1-[Dab]T[Dab][Dab][Dab][dL]L[Dab][Dab]T; lactam 4-C)
dose excreted ([1]; human, iv, six patients, 41 urine samples, 0-12 h dosage interval after 72 h of therapy, median, read-out: percentage of colistin dose excreted in urine, median): 10.1% | CLR ([1]; patient 1, 1.0 MU q12h): 0.133 L/h | CLR/CL ([1]; patient 1, 1.0 MU q12h): 9.15% | CLR ([1]; patient 2, 1.0 MU q12h): 0.405 L/h | CLR/CL ([1]; patient 2, 1.0 MU q12h): 15.58% | CLR ([1]; patient 3, 0.75 MU q12h): 0.108 L/h | CLR/CL ([1]; patient 3, 0.75 MU q12h): 2.52% | CLR ([1]; patient 5, 0.75 MU q12h): 0.284 L/h | CLR/CL ([1]; patient 5, 0.75 MU q12h): 17.95% | CLR ([1]; patient 7, 0.75 MU q12h): 0.053 L/h | CLR/CL ([1]; patient 7, 0.75 MU q12h): 4.64% | CLR ([1]; patient 8, 0.75 MU q12h): 0.767 L/h | 12-hour urinary excretion of colistin, median ([1]; six patients, median): 4.149 mg | CLR as percentage of CL (CLR/CL), median ([1]; six patients, median): 12.37% | renal clearance (CLR), median ([1]; six patients, median): 0.209 L/h | successful clinical outcomes ([2]; 12 of 16 cases, definitive therapy, Day 7): 75% | microbiological eradication ([2]; 13 of 16 subjects, causative pathogen MIC 0.5–2 mg/L): 81.25% | colistin-induced nephrotoxicity (RIFLE criteria) ([2]; during the treatment): None of the patients experienced colistin-induced nephrotoxicity | Clinical outcomes [2, 6]: Valid | Microbiological outcomes [2, 6]: clearance | Clinical outcomes [2, 7]: Invalid | Microbiological outcomes [2, 7]: clearance | Clinical outcomes [2, 8]: Valid | Microbiological outcomes [2, 8]: clearance | Clinical outcomes [2, 9]: Valid | Microbiological outcomes [2, 9]: clearance | Clinical outcomes [2, 10]: Valid | Microbiological outcomes [2, 10]: clearance | Clinical outcomes [2, 11]: Invalid | Microbiological outcomes [2, 11]: uncleared | Clinical outcomes [2, 12]: Valid | Microbiological outcomes [2, 12]: clearance | Clinical outcomes [2, 13]: Valid | Microbiological outcomes [2, 13]: clearance | Clinical outcomes [2, 14]: Valid | Microbiological outcomes [2, 14]: clearance | Clinical outcomes [2, 15]: Valid | Microbiological outcomes [2, 15]: clearance | Clinical outcomes [2, 16]: Valid | Microbiological outcomes [2, 16]: clearance | Clinical outcomes [2, 17]: Valid | Microbiological outcomes [2, 17]: clearance | Clinical outcomes [2, 18]: Invalid | Microbiological outcomes [2, 18]: uncleared | Clinical outcomes [2, 19]: Valid | Microbiological outcomes [2, 19]: clearance | Clinical outcomes [2, 20]: Valid | Microbiological outcomes [2, 20]: clearance | Clinical outcomes [2, 21]: Invalid | Microbiological outcomes [2, 21]: uncleared | Css, avg [3, 22]: 1990 ng/mL | Css, max [3, 22]: 3980 ng/mL | Css, avg [3, 23]: 1170 ng/mL | Css, max [3, 23]: 2480 ng/mL | Css, avg [3, 24]: 570 ng/mL | Css, max [3, 24]: 1710 ng/mL | Css, min [3, 24]: 130 ng/mL | Css, avg [3, 25]: 2430 ng/mL | Css, max [3, 25]: 3010 ng/mL | Css, min [3, 25]: 1950 ng/mL | Css, avg [3, 26]: 1590 ng/mL | Css, max [3, 26]: 2490 ng/mL | Css, min [3, 26]: 890 ng/mL | Css, avg [3, 27]: 1150 ng/mL | Css, max [3, 27]: 2100 ng/mL | Css, avg [3, 28]: 2040 ng/mL | Css, max [3, 28]: 3020 ng/mL | Css, min [3, 28]: 1400 ng/mL | Css, avg [3, 29]: 1510 ng/mL | Css, max [3, 29]: 2480 ng/mL | Css, min [3, 29]: 870 ng/mL | Css, avg [3, 30]: 4400 ng/mL | Css, max [3, 30]: 5840 ng/mL | Css, avg [3, 31]: 2070 ng/mL | Css, max [3, 31]: 2670 ng/mL | Css, avg [3, 32]: 1490 ng/mL | Css, max [3, 32]: 2090 ng/mL | Css, avg [3, 33]: 740 ng/mL | Css, max [3, 33]: 1340 ng/mL | Css, avg [3, 34]: 2520 ng/mL | Css, max [3, 34]: 3620 ng/mL | Css, avg [3, 35]: 1580 ng/mL | Css, max [3, 35]: 2240 ng/mL | Css, avg [3, 36]: 860 ng/mL | Css, max [3, 36]: 1890 ng/mL | Css, min [3, 36]: 280 ng/mL | Css, avg [3, 37]: 1330 ng/mL | Css, max [3, 37]: 1920 ng/mL | Css, min [3, 37]: 830 ng/mL | MIC (K. pneumoniae): 0.5 µg/mL | MIC ([4]; isolates of patient 15, first printed value): 1 µg/mL | MIC ([4]; isolates of patient 15, second printed value): 2 µg/mL | dose recovered from urine [5]: 0.18 ± 0.14%
